Data as given in patent US20230399312A1, “SUBSTITUTED PYRIMIDINES AND METHODS OF USE” (THERAVANCE BIOPHARMA R&D IP, LLC, priority 2020, published 2023).

Assays:
[1] = tested on: TGF-β-stimulated SMAD3 phosphorylation in BEAS-2B cells; assay: Cellular ALK5 potency assay, inhibition of TGF-β stimulated pSMAD3 formation in BEAS-2B cells; assay type: cell-based; conditions: Homo sapiens, pSMAD3, TGF-β 10 ng/mL, read-out: BEAS2B pIC50 (converted)
Description: The potency of compounds of the present disclosure for inhibition of TGF-β-stimulated SMAD3 phosphorylation was measured in BEAS-2B cells, a human lung epithelial cell line. TGF-β signals through activin receptor-like kinase 5 (ALK5) immediately prior to SMAD3 phosphorylation.
BEAS-2B cells were grown using 50% DMEM (Life Technologies) and 50% F-12 (Life Technologies) media, supplemented with 10% Fetal Bovine Serum (ATCC), 25 mM HEPES (Life Technologies), and 1×Pen-Strep (Life Technologies). Cells were cultured in a humidified incubator set at 37° C., 5% CO2, and trypsonized using 0.25% Trypsin with 0.5% polyvinylpyrrolidone (PVP).
For the assay, BEAS-2B cells were seeded at 7,500 cells/well (25 μL/well) in a 384-well plate and cultured overnight. Before dosing, growth media was aspirated and the wells were rinsed with HBSS Buffer (HBSS with Calcium and Magnesium, Life Technologies) supplemented with 25 mM HEPES (Life Technologies) and 1% Bovine Serum Albumin (Roche). Compounds were serially diluted in DMSO, then further diluted with supplemented HBSS Buffer (50 μL/well) to create a compound plate 3× of the final assay concentration, at 0.3% DMSO. The diluted compounds were then added to the cells (8 μL/well) and incubated at 37° C., 5% CO2 for 1 hour. After the compound incubation, TGF-β (R&D Systems) reconstituted in supplemented HBSS Buffer was added to the cells ([…], final concentration 10 ng/mL) and incubated for a further 30 minutes, after which the cells were immediately lysed with AlphaLISA lysis buffer (PerkinElmer). AlphaLISA Acceptor and Detector beads (PerkinElmer) were added 2 hours apart, then incubated overnight to be read the next day. The potency of the compound was determined through analysis of dose-dependent quantified changes in pSMAD3 signal from baseline (non-compound treated TGF-β stimulated cells). Data are expressed as pIC50 (negative decadic logarithm IC50) values.

[2] = biological target: T1, recombinant human ALK5 (TGF-βR1) protein (Homo sapiens, UniProt P36897); assay: Biochemical ALK5 (TGF-βR1) assay to measure pKi (LANCE Ultra ULight kinase assay); conditions: apparent pKi, converted from pIC50 by Cheng-Prusoff
T1 construct: purchased Life Technologies PR9075A
T1 sequence (P36897 34-503): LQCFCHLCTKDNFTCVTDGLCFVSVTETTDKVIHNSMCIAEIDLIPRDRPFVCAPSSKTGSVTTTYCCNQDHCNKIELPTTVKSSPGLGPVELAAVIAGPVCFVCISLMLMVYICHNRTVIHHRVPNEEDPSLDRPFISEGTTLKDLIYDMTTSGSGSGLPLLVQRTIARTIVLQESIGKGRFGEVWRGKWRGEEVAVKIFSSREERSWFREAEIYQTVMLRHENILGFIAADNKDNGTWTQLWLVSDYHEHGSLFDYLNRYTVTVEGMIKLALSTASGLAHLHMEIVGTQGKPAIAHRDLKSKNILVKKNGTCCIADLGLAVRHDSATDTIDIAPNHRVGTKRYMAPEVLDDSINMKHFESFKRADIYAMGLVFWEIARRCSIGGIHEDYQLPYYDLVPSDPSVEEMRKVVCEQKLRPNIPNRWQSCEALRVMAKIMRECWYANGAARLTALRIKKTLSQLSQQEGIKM
Description: The assays were performed in a 384-well plate (24 columns×16 wells/rows). An Echo®550 Liquid Handler (Labcyte) was used to prepare various intermediate concentrations of compounds of the present disclosure in 100% DMSO. From the intermediate concentrations, a range of concentrations (from […] to 25 μM corresponding to volumes up to 105 nL) were prepared and ejected into a final assay plate to be used to create individual dose response curves for each of the subject compounds. To a separate column within the assay plate, 105 nL of DMSO in each well was used to establish a maximum assay signal. Additionally, 105 nL of 100 μM SD-208, a selective TGF-βR1 inhibitor (Catalog #S7624, Selleck Chemicals), was used in another column of wells to establish a minimal assay signal.
With a multidrop dispenser, 8 μL of enzyme mixture (1.25× final) was added to each well. […] The plate was then sealed with an adhesive seal and allowed to equilibrate for 60 minutes at room temperature.
Next, 2 μL of 125 μM ATP (5×final, 125 μM ATP prepared in assay buffer with 2 mM DTT) was added to the incubated mixtures, covered with a MicroClime® Environmental Lid (Product No. LLS-0310, Labcyte) and immediately transferred to 37° C. The reactions were allowed to proceed at 37° C. for 60 minutes before terminating with the addition of 10 μL of detection antibody (LANCE® (lanthanide chelate excite) Ultra Europium-anti-phospo-DNA Topoisomerase 2-alpha (Thr1342)) in detection mixture (12 mM EDTA, 4 nM detection antibody prepared in detection buffer (50 mM Tris-HCl, 150 mM NaCl, 0.5% BSA (Fraction V), pH 7.0)) at room temperature. The plate was then read on a Perkin Elmer EnVision Plate Reader using europium specific reader settings with excitation and emission wavelengths set to 320 or 340 nm and 665 nm, respectively.
For dose-response analyses, percent inhibition versus compound concentrations were plotted, and pIC50 values were determined from a 4-parameter robust fit model with GraphPad Prism V5 Software (GraphPad Software, Inc., La Jolla, CA). This model obtains pIC50 values by fitting the sigmoidal dose-response (variable slope) equation to the data. Results were expressed as pIC50 (negative logarithm of IC50) and subsequently converted to pKi (negative logarithm of dissociate constant, Ki) using the Cheng-Prusoff equation. The higher the value of pKi (lower value of Ki), the greater the inhibition of ALK5 activity.

Row | Compound | IC50 [1] [nM] | Ki [2] [nM]
1 | Cc1cccc(-c2nccc(Nc3ccnc(Nc4ccc(N5CCNC(C)C5)cc4)n3)n2)n1 (racemic) [Compound 7, N4-[2-(6-methyl-2-pyridyl)pyrimidin-4-yl]-N2-[4-[rac-(3R)-3-methylpiperazin-1-yl]phenyl]pyrimidine-2,4-diamine] | 25.1 to 158 | 
2 | Cc1cccc(-c2nccc(Nc3ccnc(Nc4ccc(N5CCNCC5CC(=O)O[C@@H]5CCN(C)C5)cc4)n3)n2)n1 (mixture of isomers) [Compound 103, (R)-1-methylpyrrolidin-3-yl 2-(1-(4-((4-((2-(6-methylpyridin-2-yl)pyrimidin-4-yl)amino)pyrimidin-2-yl)amino)phenyl)piperazin-2-yl)acetate] | 200 to 1260 | 0.398 to 3.16
3 | Cc1cccc(-c2nccc(Nc3ccnc(Nc4ccc(CN5CCCC(C(=O)O[C@@H]6CCNC6)C5)cc4)n3)n2)n1 (mixture of isomers) [Compound 105, [rac-(3R)-pyrrolidin-3-yl] 1-[[4-[[4-[[2-(6-methyl-2-pyridyl)pyrimidin-4-yl]amino]pyrimidin-2-yl]amino]phenyl]methyl] piperidine-3-carboxylate] | 25.1 to 158 | 0.0398 to 0.316
4 | CCC(C)OC(=O)C1CN(c2ccc(Nc3nccc(Nc4ccnc(-c5cccc(C)n5)n4)n3)cc2)CCN1 (racemic) [Compound 192, [rac-(1R)-1-methylpropyl] 4-[4-[[4-[[2-(6-methyl-2-pyridyl)pyrimidin-4-yl]amino]pyrimidin-2-yl]amino]phenyl]piperazine-2-carboxylate] | 25.1 to 158 | 0.0398 to 0.316
5 | Cc1cccc(-c2nccc(Nc3ccnc(Nc4ccc(CN5CCCC(C(=O)O[C@H]6CCNC6)C5)cc4)n3)n2)n1 (mixture of isomers) [Compound 212, [rac-(3S)-pyrrolidin-3-yl] 1-[[4-[[4-[[2-(6-methyl-2-pyridyl)pyrimidin-4-yl]amino]pyrimidin-2-yl]amino]phenyl]methyl] piperidine-3-carboxylate] | 25.1 to 158 | 0.0398 to 0.316
6 | Cc1cccc(-c2nccc(Nc3ccnc(Nc4ccc(N5CCNCC5C)cc4)n3)n2)n1 (racemic) [Compound 216, N4-[2-(6-methyl-2-pyridyl)pyrimidin-4-yl]-N2-[4-[rac-(2S)-2-methylpiperazin-1-yl]phenyl]pyrimidine-2,4-diamine] | 25.1 to 158 | 0.0398 to 0.316
7 | CCC(C)OC(=O)C1CNCCN1c1ccc(Nc2nccc(Nc3ccnc(-c4cccc(C)n4)n3)n2)cc1 (racemic) [Compound 230, [rac-(1R)-1-methylpropyl] 1-[4-[[4-[[2-(6-methyl-2-pyridyl)pyrimidin-4-yl]amino]pyrimidin-2-yl]amino]phenyl]piperazine-2-carboxylate] | 25.1 to 158 | 0.398 to 3.16
8 | Cc1cccc(-c2nccc(Nc3ccnc(Nc4ccc(N(C)C5CCNC5)cc4)n3)n2)n1 (racemic) [Compound 274, N4-[2-(6-methyl-2-pyridyl)pyrimidin-4-yl]-N2-[4-[methyl-[rac-(3R)-pyrrolidin-3-yl]amino]phenyl]pyrimidine-2,4-diamine] | 25.1 to 158 | 0.0398 to 0.316
9 | Cc1cccc(-c2nccc(Nc3ccnc(Nc4ccc(CN5[C@H]6CCNC[C@@H]5CC6)cc4)n3)n2)n1 (racemic) [Compound 360, N4-[2-(6-methyl-2-pyridyl)pyrimidin-4-yl]-N2-[4-[[rac-(1S,6R)-3,9-diazabicyclo[4.2.1]nonan-9-yl]methyl]phenyl]pyrimidine-2,4-diamine] | 25.1 to 158 | 0.0398 to 0.316
10 | Cc1cccc(-c2nccc(Nc3ccnc(Nc4ccc(N5CCNC(C)C5)cc4)n3)n2)n1 (racemic) [Compound 528, N4-[2-(6-methyl-2-pyridyl)pyrimidin-4-yl]-N2-[4-[rac-(3S)-3-methylpiperazin-1-yl]phenyl]pyrimidine-2,4-diamine] |  | 0.0398 to 0.316
11 | Cc1cccc(-c2ncc(C(=O)O)c(Nc3ccnc(Nc4ccc(N)cc4)n3)n2)n1 [Compound 26, 4-[[2-(4-aminoanilino)pyrimidin-4-yl]amino]-2-(6-methyl-2-pyridyl)pyrimidine-5-carboxylic acid] | 1580 to 10000 | 
12 | Cc1cccc(-c2nccc(Nc3ccnc(Nc4ccc(CN5CC(CO)C5)cc4)n3)n2)n1 [Compound 266, [1-[[4-[[4-[[2-(6-methyl-2-pyridyl)pyrimidin-4-yl]amino]pyrimidin-2-yl]amino]phenyl]methyl]azetidin-3-yl]methanol] |  | 0.0398 to 0.316
13 | CNC(=O)Cc1cc(Nc2ccnc(Nc3ccc(N4CCNCC4)cc3)n2)nc(-c2cccc(C)n2)n1 [Compound 309, N-methyl-2-[2-(6-methyl-2-pyridyl)-6-[[2-(4-piperazin-1-ylanilino)pyrimidin-4-yl]amino]pyrimidin-4-yl]acetamide] | 200 to 1260 | 
14 | Cc1cccc(-c2nccc(Nc3ccnc(Nc4ccc(CN5CC[C@@H](O)C5)cc4)n3)n2)n1 [Compound 319, (3R)-1-[[4-[[4-[[2-(6-methyl-2-pyridyl)pyrimidin-4-yl]amino]pyrimidin-2-yl]amino]phenyl]methyl] pyrrolidin-3-ol] |  | ≤ 0.0316
15 | COC(=O)c1ccc(Nc2nccc(Nc3nc(-c4cccc(C)n4)ncc3C(=O)OC)n2)cc1 [Compound 468, methyl 4-[[2-(4-methoxycarbonylanilino)pyrimidin-4-yl]amino]-2-(6-methyl-2-pyridyl) pyrimidine-5-carboxylate] | 200 to 1260 | 
16 | Cc1cccc(-c2nccc(Nc3ccnc(Nc4ncc(N5CCNCC5)s4)n3)n2)n1 [Compound 640, N4-[2-(6-methyl-2-pyridyl)pyrimidin-4-yl]-N2-(5-piperazin-1-ylthiazol-2-yl)pyrimidine-2,4-diamine] |  | 3.98 to 31.6
17 | CNC(=O)Cc1cc(Nc2ccnc(Nc3ccc(N4CCNCC4)cc3)n2)nc(-c2cccc(C)n2)n1 [Compound 1008, N-methyl-2-[2-(6-methyl-2-pyridyl)-6-[[2-(4-piperazin-1-ylanilino)pyrimidin-4-yl]amino]pyrimidin-4-yl] acetamide] |  | 3.98 to 31.6
18 | COC(=O)c1ccc(Nc2nccc(Nc3nc(-c4cccc(C)n4)ncc3C(=O)OC)n2)cc1 [Compound 1043, methyl 4-[[2-(4-methoxycarbonylanilino)pyrimidin-4-yl]amino]-2-(6-methyl-2-pyridyl)pyrimidine-5-carboxylate] |  | 3.98 to 31.6
19 | Cc1cccc(-c2ncc(C(=O)O)c(Nc3ccnc(Nc4ccc(N)cc4)n3)n2)n1 [Compound 1044, 4-[[2-(4-aminoanilino)pyrimidin-4-yl]amino]-2-(6-methyl-2-pyridyl)pyrimidine-5-carboxylic acid] |  | 0.398 to 3.16
